Measurements reported in patent US9067889B2, “Biphenylcarboxamides as ROCK kinase inhibitors” (Amakem NV, priority 2011, dated 2015).

Key:
[1] = Stability assay in human plasma; type: in vitro ADME; conditions: 1 μM compound in human plasma, LC-MS/MS
Description: C.2.1. Stability Assay in Human and/or Rat Plasma
Compounds are incubated at a concentration of 1 μM in human plasma (or rat, mice, dog, monkey, minipig or rabbit). Samples are taken at fixed time points and the remnant of compound is determined by LC-MS/MS after protein precipitation.

[2] = Stability assay in rabbit aqueous humor; type: in vitro ADME; conditions: 1 μM compound in rabbit aqueous humor, LC-MS/MS
Description: C.2.2. Stability Assay in Rabbit Aqueous Humor
Compounds are incubated at a concentration of 1 μM in rabbit aqueous humor (AH). Samples are taken at fixed time points and the remnant of compound is determined by LC-MS/MS after protein precipitation.

- t1/2(min) in human plasma [1]: <60 min
- t½ rabbit AH [2]: 58 min
Compound: COC(=O)Cc1cccc(NC(=O)c2cccc(-c3cc(C(=O)Nc4ccncc4F)ccc3CN)c2)c1 [Compound 1]
